What all share (experiment): inhibition of tumour cell growth, NCI panel, 48 h
Test [1] deals with HCT-15 colon.
In test [2] the test system is IGROV1 ovarian.
Test [3] has as its system M14 melanoma.
Test [4] relates to OVCAR-3 ovarian.
In test [5] the test system is SF-295 CNS.
For test [6], the system named is SK-MEL-2 melanoma.
Test [7] has as its system SNB-75 CNS.
The test system of test [8] is SR leukemia.
The test system of test [9] is U251 CNS.
Test [10] concerns A498 renal.

Where “and” joins values, the source holds several entries; their conditions need not be identical. Equal values may be shown once.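 Method: 48-hour compound exposure of cells in 96-well plates, five concentrations, linear interpolation of endpoints. GI50 is the concentration that inhibits growth by half. TGI: concentration producing complete growth inhibition.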

Consider `CC[C@@H]1C[C@H]2CC3c4[nH]c5ccc(O)cc5c4CCN(C2)C31`, for which the TGI in test [1], in test [2], in test [3], in test [4], in [5] and in test [6] was greater than 100 µM in each case. For the same compound, the TGI in [7], in test [8] and in test [9] was greater than 100 µM throughout.
`O=S(=O)(Nc1cc(Cl)ccc1Cl)c1ccc(-c2cnc(C3CC3)o2)cc1`: the GI50 in [1] was 0.608 µM; in test [2], 0.673 µM; in test [3], 0.547 µM; in test [4], 0.512 µM; in test [5], 0.406 µM; in test [6], 11.1 µM. Besides, the GI50 in [7] is 0.475 µM; in [8], 0.551 µM; in test [9], 2 µM. For the same compound, the TGI in test [1] is greater than 100 µM; in [2] it was greater than 100 µM; in [3] it was 10.5 µM; in test [4], 14.8 µM; in test [5], 10.3 µM; in [6], 68.8 µM. In addition, the TGI in test [7] was 3.88 µM; in test [8], greater than 100 µM; in test [9], 68.2 µM.
As to `CCCCN(CCCC)CCCn1c(=O)c2c3ccccc3n(C)c2n2nnc(-c3ccccc3)c12`, the GI50 is 42.7 µM in test [10]; 20.7 µM in [1]; 21.6 µM in [3]; 48.6 µM in [4]; 31.9 µM in test [5]; greater than 100 µM in test [6]. Also, the results for the GI50 in test [7] and in [9] were 15.1 µM and 32.9 µM, respectively. The TGI in test [10], in [1], in test [3], in test [4], in test [5] and in test [6] was greater than 100 µM in each case. Further, the TGI is 56.2 µM in [7] and greater than 100 µM in [9].
In the case of `Cc1cn2c(/C=N/N=C(N)N)c(-c3cccnc3)nc2s1`, the GI50 in test [1] was 4.39 µM; in [2], 15.6 µM; in test [3], 10 µM; in test [4] it was 10.3 µM; in test [5], 11.9 µM; in test [6], 18.7 µM. Further, the GI50 in [9] was 10.2 µM. Also, the TGI in [1] turned out to be 18.1 µM; in test [2], 49.8 µM; in test [3], 23.5 µM; in test [4], 22.9 µM; in test [5] it was 26.5 µM; in test [6], 45.5 µM. This compound had a TGI in test [9] of 23.7 µM.
Regarding `CC(=O)C1(N=Nc2ccc(S(N)(=O)=O)cc2)CCOC1=O` (stereo not given), the TGI in test [10], in test [1], in test [2], in test [3], in test [4] and in [5] was greater than 100 µM each time. The TGI in [6], in [7] and in test [9] was greater than 100 µM throughout.
`S=c1nc(Cl)cc2[nH]c(Cl)cn12`: the TGI in [10] is 56.9 µM; in test [1], greater than 100 µM; in test [2], 30.2 µM; in test [3], greater than 100 µM; in test [4], 6.49 µM; in test [5], 14.4 µM. The TGI in test [6] is greater than 100 µM; in test [7], 13.8 µM; in test [9] it was greater than 100 µM.
As to `CCOC(=O)[C@@H](C)C[C@H](Cc1ccccc1)NC(=O)c1csc([C@@H](C[C@H](C(C)C)N(C)C(=O)[C@H](CC)NC(=O)[C@H]2CCCCN2C)OC(C)=O)n1`, the GI50 is 0.00628 µM in test [1]; 0.00193 µM in test [2]; 0.00171 µM in test [3]; less than 0.00167 µM in [4]; less than 0.00167 µM in test [5]; less than 0.00167 µM in test [6]. For the same compound, the values for the GI50 in test [7], in test [8] and in test [9] were less than 0.00167 µM, less than 0.00167 µM and 0.0031 µM, respectively. Besides, the TGI is greater than 16.7 µM in [1]; greater than 16.7 µM in test [2]; 0.00762 µM in [3]; 0.00453 µM in test [4]; greater than 4.03 µM in [5]; greater than 16.7 µM in test [6]. Besides, the TGI in [7], in test [8] and in test [9] was greater than 16.7 µM in each case.
Consider `COc1ccc(OC(C(=O)O)c2ccccc2)c2c1CCCC2=O` (stereo not given), for which the TGI in test [10], in [1], in [2], in [3], in test [4] and in test [5] was greater than 100 µM in each case. Also, the TGI in [6] and in [9] was greater than 100 µM in each case.
Consider `NCCN1C(=O)C2C3c4ccccc4C(c4ccccc43)C2C1=O` (stereo not given), for which the TGI in test [10], in test [1], in test [2], in [3], in test [4] and in test [5] was greater than 100 µM each time. In addition, the TGI in test [6], in test [7] and in [9] was greater than 100 µM throughout.
As to `CCS(=O)(=O)Nc1cccc(Nc2c3cccc(C)c3nc3c(C)cccc23)c1OC`, the GI50 is 0.392 µM in [10]; 1.31 µM in [1]; 1.8 µM in test [2]; 0.435 µM in [3]; 4.59 µM in test [4]; 0.381 µM in [5]. Further, the GI50 in test [6] was 10.5 µM; in test [7] it was 1 µM; in [9] it was 0.404 µM. For the same compound, the TGI in [10] was 6.01 µM; in [1], greater than 100 µM; in [2] it was greater than 70.2 µM; in [3], greater than 100 µM; in test [4] it was 25 µM; in test [5], 22.1 µM. Besides, the TGI in test [6] was 59.8 µM; in test [7], 22 µM; in [9], 19.8 µM.
With `CN(C)CCCNC(=O)c1cncnc1Nc1ccc(OCc2cccc(F)c2)c(Cl)c1`, the GI50 in [10] is 1.56 µM; in test [1] it was 1.38 µM; in [2], 1.78 µM; in test [3], 1.71 µM; in test [4] it was 1.49 µM; in test [5] it was 1.7 µM. The GI50 in test [6] was 2.08 µM; in test [7] it was 1.64 µM; in test [9], 1.66 µM. Moreover, the TGI in test [10] is 2.93 µM; in test [1], 2.75 µM; in [2], 3.33 µM; in [3], 3.38 µM; in [4] it was 2.88 µM; in test [5], 3.1 µM. Also, the results for the TGI in [6], in [7] and in test [9] were 4.07 µM, 3.22 µM and 3.26 µM, respectively.
Regarding `N#C/C(=C/Sc1ccccc1)C(=O)O`, the TGI was greater than 100 µM in test [1]; 37.2 µM in [2]; 57.2 µM in [3]; 78.5 µM in test [4]; greater than 100 µM in test [5]; 72.3 µM in [6]. Further, the TGI in test [7] is 55.9 µM; in [8] it was greater than 100 µM; in test [9], 45.9 µM.
As for `C=C1C(=O)O[C@@H]2C1C[C@@H](O)C(=C)CC/C=C(\C)CCC[C@H](C)[C@H]2OC(C)=O` (stereo not given in full), the GI50 in test [10] is 15.3 µM; in test [1], 3.04 µM; in test [2], 5.17 µM; in [4], 3.38 µM; in [5], 17.1 µM; in test [6], 12.9 µM. The GI50 was 13.9 µM in test [7] and 5.83 µM in [9]. The TGI worked out at 29.4 µM in test [10]; 14 µM in test [1]; 19.5 µM in test [2]; 12.6 µM in test [4]; 31.9 µM in test [5]; 31.1 µM in [6]. Besides, the TGI in test [7] stood at 33.6 µM; in [9], 23.3 µM.
Turning to `CC1OC(OC2C(CO)OC(O[C@H]3CC[C@@]4(C)C(=CC[C@H]5[C@@H]6C[C@@H]7O[C@]8(CC[C@@H](C)CN8)[C@@H](C)[C@@H]7[C@@]6(C)CC[C@@H]54)C3)C(O)C2O)C(O)C(O)C1O` (stereo not given in full), the TGI in test [10], in [1], in test [2], in test [3], in test [4] and in [5] was greater than 100 µM in each case. The TGI in test [6], in [7] and in test [9] was greater than 100 µM throughout.
`CCOC(=O)/C(C#N)=C1/C(O)=C(C(=O)OC)C(C(=O)OC)=C1C(=O)OC`: the TGI in test [1], in test [2], in test [3], in test [4], in test [5] and in test [6] was greater than 100 µM throughout. The TGI in [7] and in test [9] was greater than 100 µM throughout.
As to `Cc1cc2c(c3oc(C4(C)OC4C4OC4C)cc(=O)c13)C(=O)c1c(O)c(C3CC(C)(N(C)C)C(O)C(C)O3)cc(C3CC(N(C)C)C(O)C(C)O3)c1C2=O` (stereo not given), the figures for the GI50 in test [10] and in test [3] were 0.00057 µM and 0.000101 µM, respectively. For the same compound, the TGI in test [10] is 0.00114 µM; in test [3], 0.000196 µM and 0.000148 µM; in test [5], 0.000154 µM and 0.0012 µM; in [8], 0.00495 µM and 0.0102 µM.
Take `O=S(O)CCCSSc1ccccc1`: the TGI in test [10] was greater than 100 µM; in test [1] it was greater than 100 µM; in [2], 41.1 µM; in test [3], greater than 100 µM; in [4] it was greater than 100 µM; in test [5] it was greater than 100 µM. For the same compound, the results for the TGI in test [6], in test [7] and in test [9] were greater than 100 µM, 88.2 µM and greater than 100 µM, respectively.
Consider `CCOc1ccccc1NC(=O)CCc1n[nH]c(=S)o1`, for which the TGI in [3], in [4], in test [5], in [6], in test [7] and in test [8] was greater than 100 µM in each case. The compound also showed a TGI in test [9] greater than 100 µM.
Consider `C=C(C)[C@@H]1CC[C@]2(CO)CC[C@]3(C)[C@H](CC[C@@H]4[C@@]5(C)CCC(NCCc6ccc(O)cc6)C(C)(C)[C@@H]5CC[C@]43C)[C@@H]12` (stereo not given in full), for which the GI50 is 1.32 µM in [10]; 1.23 µM in [1]; 1.6 µM in test [3]; 1.69 µM in test [4]; 1.68 µM in test [6]; 0.334 µM in [8]. In addition, the GI50 in test [9] is 1.56 µM. For the same compound, the TGI in test [10] is 2.69 µM; in test [1] it was 2.68 µM; in test [3] it was 3.05 µM; in test [4], 3.21 µM; in test [6] it was 3.19 µM; in test [8], 1.07 µM. Moreover, the TGI in [9] turned out to be 2.98 µM.
Turning to `COc1ccc2c(c1OC)OCC(CN(C)C)C2=O` (stereo not given), the TGI in test [1] was 36.5 µM; in test [2], 35.4 µM; in [3], 31.5 µM; in [4], 48.5 µM; in [5], greater than 100 µM; in [6], 30.5 µM. Further, the values for the TGI in [7], in [8] and in test [9] were 52.4 µM, 10.5 µM and 34.1 µM, respectively.
Consider `O=C1CC(O)(c2ccccc2)C(c2ccccc2)=C1c1ccccc1` (stereo not given), for which the TGI in test [1] was greater than 100 µM; in [2], greater than 100 µM; in test [3], greater than 100 µM; in test [4] it was 88.2 µM; in [5], greater than 100 µM; in test [6], greater than 100 µM. This compound registered a TGI in test [7] of 96.7 µM.
Regarding `COC(=O)c1ccc(Cl)cc1NC(=O)C1CCCCC1`, the TGI in test [1], in test [4], in test [5], in test [6], in [8] and in test [9] was greater than 100 µM each time.
For `OCC1OC(n2cnc3c(Cl)nc(Cl)cc32)C(O)C1O` (stereo not given), the GI50 in test [1], in test [2], in test [3], in [4] and in test [5] was greater than 100 µM throughout. Moreover, the TGI in test [1], in test [2], in test [3], in test [4] and in test [5] was greater than 100 µM in each case.
`OC1C2CCC1C1C3C=CC(C3)C21` (stereo not given): the TGI in test [1], in test [2], in test [3], in [4], in test [5] and in test [6] was greater than 100 µM each time. For the same compound, the TGI in [7], in test [8] and in [9] was greater than 100 µM each time.

Source of the values: PubChem BioAssay (NCI).
